{"source": "EPA's ToxValDB 9.5 (doi:10.2903/j.efsa.2016.4453)", "key": {"Anas platyrhynchos": {"test_system": "Anas platyrhynchos", "conditions": "acute; oral; unspecified; mortality"}, "Apis mellifera": {"test_system": "Apis mellifera", "conditions": "acute, mortality"}, "Canidae": {"test_system": "Canidae", "conditions": "chronic; duration: 1 years; oral; Dog Other; body weight"}, "Coturnix japonica": {"test_system": "Coturnix japonica", "conditions": "acute; oral; mortality"}, "Folsomia candida": {"test_system": "Folsomia candida", "conditions": "chronic/long-term; duration: 28 days; reproduction"}, "Oncorhynchus mykiss": {"test_system": "Oncorhynchus mykiss", "conditions": "acute; duration: 96 hours; mortality"}, "Plant": {"test_system": "Plant", "conditions": "chronic/long-term; duration: 6 weeks"}, "Salmo trutta ssp. fario": {"test_system": "Salmo trutta ssp. fario", "conditions": "chronic/long-term; duration: 28 days; growth"}, "Typhlodromus pyri": {"test_system": "Typhlodromus pyri", "test": "LR50; higher = less toxic", "conditions": "not reported; mortality"}}, "note": "Several values for one entry are separate records, joined by “and”; a condition that tells them apart may be missing. Equal values may be shown once."}
{"molecule": "COC(=O)c1ccc(I)cc1S(=O)(=O)[N-]C(=O)Nc1nc(C)nc(OC)n1.[Na+]", "note": "[Iodosulfuron methyl ester sodium salt]", "values": [{"measurement": "LD50", "setting": "Anas platyrhynchos", "result": "> 2000", "unit": "mg/kg"}, {"measurement": "LD50", "setting": "Apis mellifera; duration: 48 hours, dermal", "result": "> 100", "unit": "µg/piece"}, {"measurement": "LD50", "setting": "Apis mellifera; duration: 72 hours, oral, unspecified", "result": "> 70", "unit": "µg/piece"}, {"measurement": "NOAEL", "setting": "Canidae", "result": 7, "unit": "mg/kg-day"}, {"measurement": "LD50", "setting": "Colinus virginianus; acute, oral, mortality", "result": "> 2000", "unit": "mg/kg"}, {"measurement": "NOEL", "setting": "Colinus virginianus; reproduction developmental, reproduction", "result": 78, "unit": "mg/kg-day"}, {"measurement": "LD50", "setting": "Coturnix japonica", "result": "> 2000", "unit": "mg/kg"}, {"measurement": "NOEC", "setting": "Folsomia candida", "result": 316, "unit": "mg/kg"}, {"measurement": "LC50", "setting": "Oncorhynchus mykiss", "result": 0.684, "unit": "µg/mL"}, {"measurement": "NOAEC", "setting": "Plant", "result": "0.27 µg/L and 0.16 µg/L"}, {"measurement": "LD50", "setting": "Rattus norvegicus; acute, Wistar, mortality", "result": 2680, "unit": "mg/kg"}, {"measurement": "NOAEL", "setting": "Rattus norvegicus; chronic, duration: 2 years, F, Wistar, body weight", "result": 3.91, "unit": "mg/kg-day"}, {"measurement": "NOAEL", "setting": "Rattus norvegicus; chronic, duration: 2 years, M, Wistar, body weight", "result": 2.96, "unit": "mg/kg-day"}, {"measurement": "NOAEL", "setting": "Rattus norvegicus; chronic, duration: 2 years, body weight", "result": 3, "unit": "mg/kg-day"}, {"measurement": "NOAEL", "setting": "Rattus norvegicus; developmental, development", "result": 315, "unit": "mg/kg-day"}, {"measurement": "NOEC", "setting": "Salmo trutta ssp. fario", "result": 7.79, "unit": "mg/L"}, {"measurement": "LR50", "setting": "Typhlodromus pyri", "result": "> 30.3", "unit": "g/ha"}]}
